From US20170023547A1, “CHEMICAL THREAT ASSESSMENT BY RAPID MOLECULAR PHENOTYPING” (Vanderbilt University, priority 2015, published 2017)

Key:
Format in all cases: cell-based, Human
A549 cells [1] = assay: Apoptosis assay (ApoONE, caspase 3/7 activation); settings: 50 μM cisplatin
Method: Cell viability and apoptosis were assessed by CellTiter Glo (Promega) and ApoONE (Promega) kits, respectively. Molecular changes were screened using a MALDI524 FTICR MS platform.
Human lung carcinoma A549 cells were obtained from ATCC (Manassas, Va.) and cultured in Dulbecco's Modified Eagle's Medium (DMEM, Gibco) with 10% v/v heat-inactivated fetal bovine serum (Atlanta Biologicals) and 1% v/v penicillin/streptomycin (P/S) (Gibco) at 37° C. with 5% CO2 atmosphere. Stable isotope labeling by amino acids in cell culture (SILAC) media were prepared using SILAC DMEM (Thermo Scientific) containing 10% v/v dialyzed heat-inactivated FBS (Fisher), 1% v/v P/S, proline (250 mg/L) (Thermo Scientific), and appropriate light and heavy labeled arginine (84 mg/L), lysine (146 mg/L). […]
At each time point, cell viability and apoptosis were assessed by CellTiter-Glo (Promega) and ApoONE (Promega) kits, respectively. Plates were incubated at 37° C. in a plate reader (BioTek) with data acquisition every 10 min by luminescence (1 s read time, 200 gain) and fluorescence (485 nm excitation, 528 nm emission). […] Cell viability was also assessed using the LIVE/DEAD Viability/Cytotoxicity Kit for mammalian cells (ThermoFisher). […]

A549 cells [2] = assay: Molecular screening assay (MALDI FTICR MS molecular variance score); settings: 1 and 6 h exposure, doses 20-100 μM
Method: After incubation for the respective times, wells were washed 3 times with PBS and stored at −80° C. The effect of different toxin dosage amounts and exposure times on the molecular content of a sample may be evaluated and reported directly for thousands of molecular species based upon the mass spectra that were collected for each of the samples. A comparison of the mass-to-charge (m/z) peak content between spectra from dosed cells and a reference spectrum from a non-dosed control sample delivers a mass spectrometric assessment of toxicity-induced molecular variation. However, seeking a data-driven global comparison instead of focusing on specific molecular species of interest makes the assessment of molecular change between the different experimental conditions very complex and high dimensional. To determine which dosage amount induces the greatest molecular change, a quick and broad assessment of toxicity-induced molecular variance summarizing the entire recorded mass range was developed. […]
Within each time point (represented by a 24-well plate), seven different dosage conditions were measured: six different toxin dosages and one reference condition (e.g., untreated). Per dosage condition there were nine distinct replicate measurements made: each dosage condition was represented by three replicate wells, from which three technical replicate spectra were measured per well. […]

A549 cells [3] = assay: Multi-omics analysis (transcriptome, proteome, phosphoproteome, metabolome); settings: 50 μM cisplatin, A549 cells, 1, 6, 24 and 48 h
Method: Samples were analyzed for transcriptome changes by RNA sequencing at the Genomics Services Lab, HudsonAlpha, for proteome changes by label free, SILAC, and phospho-enriched SILAC LC-MS/MS, and metabolome changes by UPLC-IM-MS and data-independent acquisition (MSE) using both hydrophilic-interaction liquid chromatography and reverse phase liquid chromatography.
RNA was isolated using the RNeasy Mini Kit (Qiagen). For each time point, untreated and cisplatin-treated samples were isolated in triplicate and analyzed by the Genomics Services Lab at HudsonAlpha. RNAseq was performed using poly(A) selection on an Illumina HiSeq v4 sequencing platform. Reads were paired-end with a read length of 50 bp and 50 million reads per sample.
Cells were scraped from slides and lysed in 300 μL of 50 mM Tris pH 8, 150 mM NaCl, 1% Nonidet 40, 1 mM EDTA with added HALT Protease Inhibitor Cocktail (Thermo Scientific), centrifuged, and assayed for protein concentration (BCA Protein Assay, Thermo Scientific Pierce) using a SpectraMax M2e Microplate Reader with SoftMax Pro software version 5 (Molecular Devices). Aliquots of 100 μg of protein were acetone precipitated in six times the volume for 2 h at −80° C. Precipitates were washed three times with cold acetone and reconstituted in 10 μL of neat trifluoroethanol (TFE) and 10 μL of 100 mM Tris (pH 8.0). […]

N.N.[Cl][Pt][Cl] [cisplatin] was tested, and the “time of maximal caspase activation” value (A549 cells [1]) was 24 h, the “dose up to which molecular variance increased (maximum molecular response, optimal dose)” value (A549 cells [2]) was 50 µM and the “percentage of unique species detected that were significantly changed” value (A549 cells [3]) was 24%. For the same molecule, the “number of significantly changed unique species” value (A549 cells [3]; of 53,500 unique species detected) was 13,483.
